Literature values, collected in patent publication US6558710B1, “Topical zinc compositions and methods of use” (priority 1999, dated 2003).
Like-named read-outs stand apart in the source and are kept apart here.

Experiments:
HIV = details: 1-1.5% zinc acetate, 2 hours, in vitro (U.S. Pat. No. 5,545,673)
[1] = solutions of 0.2-1%, applied circumorally

| Molecule | dermal irritancy (1% aqueous) | dermal irritancy (20% suspension) | other results |
| --- | --- | --- | --- |
| CC(=O)[O-].CC(=O)[O-].[Zn+2] [zinc acetate] |  |  | dermal irritancy (20% aqueous): slightly less irritant; HIV infectivity (HIV): reduced or completely eliminated |
| [Cl-].[Cl-].[Zn+2] [zinc chloride] | severely irritant |  |  |
| [O]=[Zn] [zinc oxide] |  | not overtly irritant | stimulation of epidermal healing (in comparison to the more irritating and more water-soluble zinc salts): only marginally effective |
| O=S(=O)([O-])[O-].[Zn+2] [zinc sulfate] | not overtly irritant |  | irritation and side effects [1]: severe irritation, unpleasant dryness and stimulate the emetic reflex |
| zinc pyrithione |  | not overtly irritant |  |
